Data: patent US20070203066A1, “Compositions and methods for inhibiting cellular proliferation” (priority 2005, published 2007)
Non-standard residues stand in square brackets, D forms with d. Primed or numbered codes have the meaning given here. No end group written: not given here. Ida = iminodiacetic acid linker, its two carboxyls bind the Lys side-chain amines of two peptides, giving a homodimer; Ida(3) = iminodiacetic acid linker, Lys side-chain amines bound to its two carboxyl groups; Ida″ = iminodiacetic acid linker bound to the Lys side-chain amine, forming a dimer; acyl = not defined here; Ahx = NCCCCCC(=O)O

tested on: HUVECs; type: cell-based; details: 48 h
In short: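 HUVECs seeded at 5,000 cells/well in EBM with 2% FCS, adhered ≥12 hours, then stimulated with bFGF 10 ng/ml or VEGF 5 ng/ml plus varying peptide concentrations. After 48 hours at 37 ° C, 5% CO2, proliferation inhibition read by BrdU incorporation.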

`CC[C@H](C)[C@H](NC(=O)[C@H](C)NC(=O)[C@@H](NC(=O)[C@H](CCCNC(=N)N)NC(=O)[C@H](CCC(N)=O)NC(=O)[C@H](CCCNC(=N)N)NC(=O)[C@H](CCCNC(=N)N)NC(=O)[C@H](CCCNC(=N)N)NC(=O)[C@H](CCCNC(=N)N)NC(=O)[C@H](C)NC(C)=O)C(C)C)C(=O)N[C@@H](Cc1ccc(O)cc1)C(=O)N[C@@H](Cc1ccccc1)C(=O)N[C@@H](CCCCNC(=O)CN(CC(=O)NCCCC[C@H](NC(=O)[C@H](Cc1ccccc1)NC(=O)[C@H](Cc1ccc(O)cc1)NC(=O)[C@@H](NC(=O)[C@H](C)NC(=O)[C@@H](NC(=O)[C@H](CCCNC(=N)N)NC(=O)[C@H](CCC(N)=O)NC(=O)[C@H](CCCNC(=N)N)NC(=O)[C@H](CCCNC(=N)N)NC(=O)[C@H](CCCNC(=N)N)NC(=O)[C@H](CCCNC(=N)N)NC(=O)[C@H](C)NC(C)=O)C(C)C)[C@@H](C)CC)C(N)=O)C(=O)CCNC(=O)OC(C)(C)C)C(N)=O` [Peptide 228] and `CC[C@H](C)[C@H](NC(=O)[C@H](C)NC(=O)[C@@H](NC(=O)[C@H](C)NC(=O)[C@H](CCC(N)=O)NC(=O)[C@H](CCCNC(=N)N)NC(=O)[C@H](CCCNC(=N)N)NC(=O)[C@H](CCCNC(=N)N)NC(=O)[C@H](CCCNC(=N)N)NC(=O)[C@H](CCCNC(=N)N)NC(C)=O)C(C)C)C(=O)N[C@@H](Cc1c[nH]cn1)C(=O)N[C@@H](Cc1ccccc1)C(=O)N[C@@H](CCCCNC(=O)CN(CC(=O)NCCCC[C@H](NC(=O)[C@H](Cc1ccccc1)NC(=O)[C@H](Cc1c[nH]cn1)NC(=O)[C@@H](NC(=O)[C@H](C)NC(=O)[C@@H](NC(=O)[C@H](C)NC(=O)[C@H](CCC(N)=O)NC(=O)[C@H](CCCNC(=N)N)NC(=O)[C@H](CCCNC(=N)N)NC(=O)[C@H](CCCNC(=N)N)NC(=O)[C@H](CCCNC(=N)N)NC(=O)[C@H](CCCNC(=N)N)NC(C)=O)C(C)C)[C@@H](C)CC)C(N)=O)C(=O)CCNC(=O)OC(C)(C)C)C(N)=O` [Peptide 250] cannot be ordered by IC50: < 10 µM for the first, < 10 µM for the second.

same assay, conditions: HUVEC proliferation, bFGF at 10 ng/ml or VEGF at 5 ng/ml, 48 hours, BrdU incorporation; read-out: IC50 on HUVECs

Compared with KTKRKRKKQRAKIIFVQNM [compound 113], RKKQRVKIAYEEIFV [compound 64] is higher in IC50: < 10 µM for the first, 10 to 30 µM for the second. The first is the more potent here.

Compared with “325 (Ac-RRRHRQHVRIYFK; not fully specified (residue 13, C-terminus); also: homodimer via Ida linker on Lys13 side chain) [compound 325]”, “347 (Ac-ARRRRQRVAIYTK-NH2; not fully specified (residue 13); also: homodimer of residues 1-13 via Ida linker on Lys13 side chain) [compound 347]” is higher in IC50: < 10 µM for the first, > 30 µM for the second.

“425 (Ac-ARRRRQRVAIKF; not fully specified (residue 11); also: homodimer of residues 1-12 via Ida linker on Lys11 side chain) [compound 425]” and KTKRKRKKQRVAIIFVQNM [compound 112] cannot be ordered by IC50: < 10 µM for the first, < 10 µM for the second.

Going from “472 (Ac-PRRRGQAVAIYFK(Ida(3)); not fully specified (C-terminus); also: homodimer via Ida linker on Lys13 side chain) [compound 472]” to “345 (Ac-ARRRRQRVAIYWK-NH2; not fully specified (residue 13); also: homodimer of residues 1-13 via Ida linker on Lys13 side chain) [compound 345]”, the IC50 falls from > 30 µM to < 10 µM. The second is the more potent here.

Compared with “513 (Ac-ARRRRIRVAIYFK; not fully specified (C-terminus); also: homodimer via Ida linker at Lys13 side chain) [compound 513]”, KTKRKRIKQRVKRAYEEIF [compound 137] is higher in IC50: 10 to 30 µM for the first, > 30 µM for the second. The first is the more potent here.

“205 (Ac-RRARRQRVAIIF; also: dimer: Phe C-termini joined via Lys linker) [compound 205]” and “508 (Ac-CNGRCGGARRRRQRVAIYFK; not fully specified (C-terminus); cysteine pairing not given here; also: homodimer via Ida linker at Lys20 side chain) [compound 508]” cannot be ordered by IC50: < 10 µM for the first, < 10 µM for the second.

“185 (Ac-RHRRRQRVRIIF; also: homodimer via C-terminal Lys linker) [compound 185]” and “406 (Ac-MRRRRQAVAIYFK; not fully specified (residue 13, C-terminus); also: homodimer via Ida linker on Lys side chains, linker at 13 via Ida, other end not in the chain) [compound 406]” cannot be ordered by IC50: < 10 µM for the first, < 10 µM for the second.

First: RKRKKQRVKIIF [compound 82]
Second: 487 (Ac-ARRRRQPVAIKF; not fully specified (residue 11); also: homodimer: Lys11 side chain bound to Ida linker (Boc on Ida N)) [compound 487]
The IC50 of the first is higher: > 30 µM for the first, 10 to 30 µM for the second. The second is the more potent here.

“336 (Ac-ARRRRQRVAIYFK-NH2; not fully specified (residue 13); also: homodimer via Lys13 side chain, Ida-PEG 20 kDa linker) [compound 336]” and “389 (Ac-ARRRRQAVGIYFK-NH2; not fully specified (residue 13); also: homodimer via Ida linker on Lys13 side chain, Ida amine Boc) [compound 389]” cannot be ordered by IC50: < 10 µM for the first, < 10 µM for the second.

Going from “405 (Ac-LRRRRQAVAIYFK(Ida(3))-NH2; also: homodimer via Ida linker on Lys13 side chain, Boc on Ida amine) [compound 405]” to KRKRKKQRVKIAYEEIFVQNM [compound 20], the IC50 rises from < 10 µM to > 30 µM.

“326 (Ac-RRRRHQHVRIYFK; not fully specified (residue 13, C-terminus); also: homodimer via Ida linker on Lys13 side chain) [compound 326]” and “193 (Ac-ARRARQRVRIIF; also: dimer: C-terminal Phe bound to an amino group of a Lys linker, 2 chains per Lys) [compound 193]” cannot be ordered by IC50: < 10 µM for the first, < 10 µM for the second.

First: 477 (Ac-PRRRSQAVAIYFK(Ida(3)); not fully specified (C-terminus); also: homodimer via Ida linker on Lys13 side chain) [compound 477]
Second: 197 (Ac-RAARRQRVRIIF; also: dimer: C-terminal Phe bound to an amino group of a Lys linker, 2 chains per Lys) [compound 197]
The IC50 of the first is higher: 10 to 30 µM for the first, < 10 µM for the second.

Compared with “424 (Ac-ARRRRQWVAIYFK; not fully specified (residue 13, C-terminus); also: homodimer of residues 1-13 via Ida linker on K13 side chain) [compound 424]”, TKRKRKKQRVKIAYEEIFV [compound 60] is higher in IC50: < 10 µM for the first, 10 to 30 µM for the second.

“172 (acyl-KRRRRRQRVRIIF; not fully specified (residue 1); reading uncertain; also: homodimer via Ida-PEG 20 kDa linker on Lys1 side chains, acyl group not given here) [compound 172]” and “200 (Ac-RARRRQAVRIIF; also: dimer: C-terminal Phe bound to an amino group of a Lys linker, 2 chains per Lys) [compound 200]” cannot be ordered by IC50: < 10 µM for the first, < 10 µM for the second.

First: 324 (Ac-RRHRRQHVRIYFK(Ida)-NH2; also: homodimer via Ida linker on Lys13 side chain) [compound 324]
Second: RKKQQRVKIAYEEIFV [compound 78]
The IC50 of the first is lower: < 10 µM for the first, > 30 µM for the second. The first is the more potent here.

“500 (Ac-PRRNRQAVAIYFK(Ida″); not fully specified (C-terminus); also: homodimer via Ida linker on Lys13 side chain) [compound 500]” and “388 (Ac-ARRRRQAVFIYFK-NH2; not fully specified (residue 13); also: homodimer via Ida linker on Lys13 side chain, Ida amine Boc) [compound 388]” cannot be ordered by IC50: < 10 µM for the first, < 10 µM for the second.

“178 (Ac-RRRRRQAVRIIF; also: dimer: C-terminus of Phe12 of each chain bound to one amino group of a Lys linker) [compound 178]” and “320 (XRRRRQAVHIYFK; Xaa = Acylated Histidine; The side chain of Lysine at position 13 is covalently bound to an Ida linker forming a homodimer of residues 1 through 13.) [compound 320]” cannot be ordered by IC50: < 10 µM for the first, < 10 µM for the second.

Compared with “361 (Ac-ARRRRQRVAIYFK; not fully specified) [compound 361]”, “227 (Ac-ARRRRQRVAIWFK; also: homodimer via Ida linker on side chain of Lys13) [compound 227]” is lower in IC50: > 30 µM for the first, < 10 µM for the second.

KTKRKRKKQRVKIAYEEIM [compound 42] and VKIAYEEIFVQNM [compound 43] cannot be ordered by IC50: > 30 µM for the first, > 30 µM for the second.

Going from “466 (Ac-AK(Ida(3))RRRQAVAIYF; also: homodimer via Ida linker on Lys2 side chain) [compound 466]” to “135 (KRKRKKQRVKI[Ahx][Ahx]IF; also: dimer: C-terminus of Phe15 of each chain bound to one amino group of a Lysine linker) [compound 135]”, the IC50 falls from > 30 µM to < 10 µM. The second is the more potent here.

Going from “235 (Ac-RHHRRQRVRIIF; also: dimer via C-terminal Phe to Lys linker) [compound 235]” to KTKRKRVKIAYEEIFVQNM [compound 52], the IC50 rises from < 10 µM to > 30 µM.
